How the values were obtained:
Format in all cases: cell-based
human A1 receptor = biological target: T1, human A1 receptor (Homo sapiens, UniProt P30542); assay: cAMP (HTRF) functional assay, recombinant CHO cells expressing human A1 receptor, forskolin + agonist CPA
T1 construct: expressed in transfected cells; host or cells: CHO
T1 sequence (P30542 1-326): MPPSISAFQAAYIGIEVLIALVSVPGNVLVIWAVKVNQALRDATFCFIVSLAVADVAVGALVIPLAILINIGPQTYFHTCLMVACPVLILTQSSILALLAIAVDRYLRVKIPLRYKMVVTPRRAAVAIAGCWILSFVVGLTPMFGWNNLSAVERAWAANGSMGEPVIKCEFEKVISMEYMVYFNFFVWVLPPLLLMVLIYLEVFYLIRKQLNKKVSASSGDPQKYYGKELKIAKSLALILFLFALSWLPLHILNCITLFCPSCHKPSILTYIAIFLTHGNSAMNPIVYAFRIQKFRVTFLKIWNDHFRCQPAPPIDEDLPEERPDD
Experimental: (§1) The functional activities of human A2A, A2B, A1 and A3 receptors were determined by quantification of cAMP, being the second messenger for adenosine receptors.
For human A1 and A3 receptors, recombinant CHO cells, expressing either A1 or A3-receptor, were used. As both receptors couple to Gi proteins, the assay protocol was adapted:
(§2) Cells were seeded into 384-well plates, forskolin, test compounds and agonists (CPA for A1- and IB-MECA for A3-receptor) were added. After 30 min incubation, HTRF reagents (cAMP dynamic 2, Cis Bio) were added and the cellular cAMP levels were determined using the ENVISION (Perkin Elmer) plate reader. Obtained raw data were normalized against the inhibitor control and the neural control (DMSO) and the normalized data were fitted using GeneData software.

human A2A receptor = biological target: T2, human A2A receptor (Homo sapiens, UniProt P29274); assay: cAMP (HTRF) functional assay, recombinant HEK293 cells expressing human A2A receptor, agonist NECA
T2 construct: expressed in transfected cells; host or cells: HEK293
Experimental: as §1, §2

human A2B receptor = biological target: T3, human A2B receptor (Homo sapiens, UniProt P29275); assay: cAMP (HTRF) functional assay, recombinant HEK293 cells expressing human A2B receptor, agonist NECA
T3 construct: expressed in transfected cells; host or cells: HEK293
T3 sequence (P29275 1-332): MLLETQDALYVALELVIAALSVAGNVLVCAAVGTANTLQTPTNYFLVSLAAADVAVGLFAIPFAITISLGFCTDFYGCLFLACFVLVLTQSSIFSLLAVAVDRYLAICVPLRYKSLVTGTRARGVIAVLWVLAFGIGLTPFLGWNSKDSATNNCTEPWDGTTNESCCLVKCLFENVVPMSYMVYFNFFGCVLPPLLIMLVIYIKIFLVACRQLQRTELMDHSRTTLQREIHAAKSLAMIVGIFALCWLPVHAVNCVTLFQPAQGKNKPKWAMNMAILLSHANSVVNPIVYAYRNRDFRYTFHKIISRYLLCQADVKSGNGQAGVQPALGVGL
Experimental: as §1, §2

T2 sequence (P29274 whole entry): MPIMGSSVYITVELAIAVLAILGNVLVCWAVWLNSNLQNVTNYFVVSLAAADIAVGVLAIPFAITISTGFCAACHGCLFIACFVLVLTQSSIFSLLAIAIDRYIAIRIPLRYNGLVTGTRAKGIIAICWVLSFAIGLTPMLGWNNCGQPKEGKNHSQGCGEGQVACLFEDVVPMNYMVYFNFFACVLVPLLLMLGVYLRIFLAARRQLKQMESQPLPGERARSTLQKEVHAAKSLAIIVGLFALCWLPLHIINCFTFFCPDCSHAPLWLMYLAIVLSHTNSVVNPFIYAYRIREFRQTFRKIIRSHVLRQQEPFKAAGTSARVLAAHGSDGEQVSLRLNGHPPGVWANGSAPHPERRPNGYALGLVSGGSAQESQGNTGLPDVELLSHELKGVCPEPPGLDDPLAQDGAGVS

SMILES | IC50 (human A1 receptor) | IC50 (human A2A receptor) | IC50 (human A2B receptor)
COc1ncc(-c2cnn(C)c2)c2sc(NC(=O)c3ccc(CN(C)C)cc3)nc12 [compound 22, 4-Dimethylaminomethyl-N-[4-methoxy-7-(1-methyl-1H-pyrazol-4-yl)-thiazolo[4,5-c]pyridin-2-yl]-benzamide] | > 1000 nM | < 10 nM | < 100 nM
COc1ncc(C2CCOCC2)c2sc(NC(=O)c3ccc(CN(C)C)cc3)nc12 [compound 27, 4-Dimethylaminomethyl-N-[4-methoxy-7-(tetrahydro-pyran-4-yl)-thiazolo[4,5-c]pyridin-2-yl]-benzamide] | > 1000 nM | < 10 nM | < 100 nM
COc1ncc(N2CCOCC2)c2sc(NC(=O)N3CCC4(CCCOC4)C3)nc12 (stereo not shown) [compound 34, 7-Oxa-2-aza-spiro[4.5]decane-2-carboxylic acid (4-methoxy-7-morpholin-4-yl-thiazolo[4,5-c]pyridin-2-yl)-amide] |  | < 10 nM | < 100 nM
COc1ncc(-c2cnn(C)c2)c2sc(NC(=O)N3CCC4(CCCOC4)C3)nc12 (stereo not shown) [compound 80, 7-Oxa-2-aza-spiro[4.5]decane-2-carboxylic acid [4-methoxy-7-(1-methyl-1H-pyrazol-4-yl)-thiazolo[4,5-c]pyridin-2-yl]-amide] | > 1000 nM | < 10 nM | < 100 nM
COc1ncc(N2CCOCC2)c2sc(NC(=O)c3ccc(CN4CCCC4=O)cc3)nc12 [compound 170, N-(4-Methoxy-7-morpholin-4-yl-thiazolo[4,5-c]pyridin-2-yl)-4-(2-oxo-pyrrolidin-1-ylmethyl)-benzamide] |  | < 10 nM | < 100 nM
COc1ncc(-c2cnn(C)c2)c2sc(NC(=O)N3CC[C@]4(CCCOC4)C3)nc12 [compound 177, (R)-7-Oxa-2-aza-spiro[4.5]decane-2-carboxylic acid [4-methoxy-7-(1-methyl-1H-pyrazol-4-yl)-thiazolo[4,5-c]pyridin-2-yl]-amide] | > 1000 nM | < 10 nM | < 100 nM
COc1ncc(C2CCOCC2)c2sc(NC(=O)c3ccc(CN4CCCC4=O)cc3)nc12 [compound 180, N-[4-Methoxy-7-(tetrahydro-pyran-4-yl)-thiazolo[4,5-c]pyridin-2-yl]-4-(2-oxo-pyrrolidin-1-ylmethyl)-benzamide] | < 1000 nM | < 10 nM | < 100 nM
COc1ncc(C2CCOCC2)c2sc(NC(=O)c3cnc(C)s3)nc12 [compound 181, 2-Methyl-thiazole-5-carboxylic acid [4-methoxy-7-(tetrahydro-pyran-4-yl)-thiazolo[4,5-c]pyridin-2-yl]-amide] | < 1000 nM | < 10 nM | < 100 nM
COc1ncc(-c2ccc(F)cc2)c2sc(NC(=O)N3CCC4(CCOCC4)C3)nc12 [compound 193, 8-Oxa-2-aza-spiro[4.5]decane-2-carboxylic acid [7-(4-fluoro-phenyl)-4-methoxy-thiazolo[4,5-c]pyridin-2-yl]-amide] | > 1000 nM | < 10 nM | < 100 nM
COc1ncc(N2CCOCC2)c2sc(NC(=O)c3ccc(N4C(=O)CCC4=O)cc3)nc12 [compound 214, 4-(2,5-Dioxo-pyrrolidin-1-yl)-N-(4-methoxy-7-morpholin-4-yl-thiazolo[4,5-c]pyridin-2-yl)-benzamide] | > 1000 nM | < 10 nM | < 100 nM
COc1ncc(-c2ccncc2)c2sc(NC(=O)c3ccc(C(=O)N(C)C)cc3)nc12 [compound 219, N-(4-Methoxy-7-pyridin-4-yl-thiazolo[4,5-c]pyridin-2-yl)-N′,N′-dimethyl-terephthalamide] | > 1000 nM | < 10 nM | < 100 nM
COc1nc(F)c(-c2ccccc2)c2sc(NC(=O)N3CCC4(CCOCC4)C3)nc12 [compound 229, 8-Oxa-2-aza-spiro[4.5]decane-2-carboxylic acid (6-fluoro-4-methoxy-7-phenyl-thiazolo[4,5-c]pyridin-2-yl)-amide] |  | < 10 nM | < 10 nM
COc1ncc(C2CCOCC2)c2sc(NC(=O)N3CCC4(CCOCC4)C3)nc12 [compound 232, 8-Oxa-2-aza-spiro[4.5]decane-2-carboxylic acid [4-methoxy-7-(tetrahydro-pyran-4-yl)-thiazolo[4,5-c]pyridin-2-yl]-amide] | > 1000 nM | < 10 nM | < 100 nM
COc1ncc(C2=CCOCC2)c2sc(NC(=O)N3CCC4(CCOCC4)C3)nc12 [compound 237, 8-Oxa-2-aza-spiro[4.5]decane-2-carboxylic acid [7-(3,6-dihydro-2H-pyran-4-yl)-4-methoxy-thiazolo[4,5-c]pyridin-2-yl]-amide] | < 1000 nM | < 10 nM | < 10 nM

Other lines, results leading:

IC50 (human A1 receptor) | IC50 (human A2A receptor) | IC50 (human A2B receptor) | SMILES
> 1000 nM | < 10 nM | < 100 nM | COc1ncc(N2CCOCC2)c2sc(NC(=O)c3ccc(Cn4ccnc4)cc3)nc12 [compound 33, 4-Imidazol-1-ylmethyl-N-(4-methoxy-7-morpholin-4-yl-thiazolo[4,5-c]pyridin-2-yl)-benzamide]
< 1000 nM | < 10 nM | < 100 nM | COc1ncc(-c2ccccc2)c2sc(NC(=O)c3ccc(CN4CCCC4=O)cc3)nc12 [compound 62, N-(4-Methoxy-7-phenyl-thiazolo[4,5-c]pyridin-2-yl)-4-(2-oxo-pyrrolidin-1-ylmethyl)-benzamide]
> 1000 nM | < 10 nM | < 100 nM | COc1ncc(-c2cnn(C)c2)c2sc(NC(=O)N3CCC4(CCOCC4)C3)nc12 [compound 81, 8-Oxa-2-aza-spiro[4.5]decane-2-carboxylic acid [4-methoxy-7-(1-methyl-1H-pyrazol-4-yl)-thiazolo[4,5-c]pyridin-2-yl]-amide]
> 1000 nM | < 10 nM | < 100 nM | COc1ncc(C2CCOCC2)c2sc(NC(=O)c3cnc(C)o3)nc12 [compound 147, 2-Methyl-oxazole-5-carboxylic acid [4-methoxy-7-(tetrahydro-pyran-4-yl)-thiazolo[4,5-c]pyridin-2-yl]-amide]
 | < 10 nM | < 100 nM | COc1ncc(N2CCOCC2)c2sc(NC(=O)N3CC[C@@]4(CCCOC4)C3)nc12 [compound 168, (S)-7-Oxa-2-aza-spiro[4.5]decane-2-carboxylic acid (4-methoxy-7-morpholin-4-yl-thiazolo[4,5-c]pyridin-2-yl)-amide]
> 1000 nM | < 10 nM | < 100 nM | COc1ncc(-c2cnn(C)c2)c2sc(NC(=O)N3CC[C@@]4(CCOC4)C3)nc12 [compound 172, (R)-2-Oxa-7-aza-spiro[4.4]nonane-7-carboxylic acid [4-methoxy-7-(1-methyl-1H-pyrazol-4-yl)-thiazolo[4,5-c]pyridin-2-yl]-amide]
> 1000 nM | < 10 nM | < 100 nM | COc1ncc(-c2cnn(C)c2)c2sc(NC(=O)N3CC[C@@]4(CCCOC4)C3)nc12 [compound 176, (S)-7-Oxa-2-aza-spiro[4.5]decane-2-carboxylic acid [4-methoxy-7-(1-methyl-1H-pyrazol-4-yl)-thiazolo[4,5-c]pyridin-2-yl]-amide]
 | < 10 nM | < 100 nM | COc1ncc(-c2ccccc2)c2sc(NC(=O)N3CCC4(CCCC4N)CC3)nc12 (stereo not shown) [compound 201, 1-amino-N-{4-methoxy-7-phenyl-[1,3]thiazolo[4,5-c]pyridin-2-yl}-8-azaspiro[4.5]decane-8-carboxamide]
> 1000 nM | < 10 nM | < 100 nM | COc1ncc(-c2ccncc2)c2sc(NC(=O)N3CCC4(CCOCC4)C3)nc12 [compound 212, 8-Oxa-2-aza-spiro[4.5]decane-2-carboxylic acid (4-methoxy-7-pyridin-4-yl-thiazolo[4,5-c]pyridin-2-yl)-amide]

Source: patent publication US11186592B2, “Thiazolopyridine derivatives as adenosine receptor antagonists” (MERCK PATENT GMBH, priority 2017, dated 2021)
